Experimental data published in patent US20150273086A1, “HYPERPOLARIZED 2-OXOGLUTARATE AS METABOLIC AGENT IN MR” (BRACCO IMAGING S.P.A., priority 2012, published 2015).
One block for each compound: values may come before it.

Tests used:
[1] = tested on: prostate cancer cells (PC-3); conditions: 3.5 mM substrate, aspartate added, 14.1 T, 37° C., FIG. 3
Procedure: 10 million prostate cancer cells (PC-3) were harvested and redissolved in 500 μl phosphate buffer (PBS).
The acquisition was started just before injection of the hyperpolarized substrate.

[2] = tested on: liver cancer cells (Morris7777); conditions: 3.5 mM total substrate, aspartate added, FIG. 13
Procedure: 10 million liver cancer cells (Morris7777), were harvested and redissolved in 500 μl phosphate buffer (PBS).
The acquisition was started just before injection of the hyperpolarized substrates.

[3] = tested on: PC-3, HEP-G2, PNT-1A and THLE-3 cells; assay: UV assay of uptake and conversion of 2-oxoglutarate to glutamate in cancerous and normal cells; type: cell-based, human; conditions: 20 mM 2-oxoglutarate, 20 mM aspartate as co-substrate, 30 minutes at 37° C., FIG. 2
Procedure: A combination of cellular uptake of 2-oxoglutarate and conversion of 2-oxoglutarate to glutamate was measured using a UV assay. Following incubation of the cells with 2-oxoglutarate for 30 minutes at 37° C. the cells were disrupted and a perchloric acid extract was made to precipitate the enzymes, whereafter the concentration of the formed product, glutamate, was measured.
The following UV assay for measuring glutamate production was applied.
The assay consists of two parts, as shown in the reaction scheme below. In the first part, glutamate is generated by incubating 0.5 million (0.5*10^6) viable cells with 20 mM 2-oxoglutarate and 20 mM aspartate for 30 minutes at 37° C. In the second part the glutamate concentration is measured using commercially available GDH (glutamate dehydrogenase) enzyme to generate 2-oxoglutarate and NADH. The latter is an unfavorable reaction and the reaction is therefore forced in this direction by trapping of the produced NADH in the INT (Iodonitrotetrazolium) reaction.
Reaction scheme for the assay determining glutamate concentration from cells incubated with 2-oxoglutarate. GDHcell refer to the cellular presence of glutamate dehydrogenase which will convert 2-oxoglutarate to glutamate when 2-oxoglutarate is incubated with whole cells in the first part of the assay. […]

aspartate transaminase = assay: Aspartate transaminase conversion of hyperpolarized 1-13C-2-oxoglutarate to 1-13C-glutamate with or without co-substrate
Procedure: The sample was dissolved in 5 ml phosphate buffer (40 mM, pH 7.3) with addition of NaOH (8 μl, 12 M). The pH after dissolution was 7.3. From this hyperpolarized solution aliquots of 300 μl were taken and added one at a time to 5 mm NMR tubes (1-3) kept at 37° C. containing the following:
Tube 1: 2.5 μl (3.2 U) aspartate transaminase+100 μl (120 mM) glutamate+200 μl 40 mM phosphate buffer pH.7.3.
Tube 2: 2.5 μl (3.2 U) aspartate transaminase+100 μl (120 mM) aspartate+200 μl 40 mM phosphate buffer pH.7.3.
Tube 3: 2.5 μl (3.2 U) aspartate transaminase+300 μl (40 mM) phosphate buffer pH.7.3.
A low pulse angle experiment was performed (15 degree pulses every 0.5 s for 12 s). Following the end of the experiment the procedure was repeated for tube 2 and tube 3.

[4] = Hydrolysis of hyperpolarized 2-oxoglutaric-(1)-ethyl ester upon dissolution (13C-NMR); type: physicochemical; conditions: after 15 s; dissolved in D2O with added NaOH, pH 11
Procedure: 2-oxoglutaric-(1)-ethyl ester (31 mg, 0.18 mmol) was added to an Eppendorf tube and mixed with 0.7 mg (0.45 μmol) of the carboxylic acid form of the finland radical (tris{8-carboxyl-2,2,6,6-tetramethyl-benzo(1,2-d:4,5-dS)bis(1,3)dithiole-4-yl}methyl, carboxylic acid form). […]. The ethyl ester formed a glass upon rapid freezing. […] […]. The sample was hyperpolarized for 90 min.
The sample was dissolved in 6 ml D2O with added NaOH (35 μl of 10 M). […] The ester was hydrolyzed up to at least 95%, after 15 s. The 2-oxoglutaric-(1)-ethyl ester was easily hydrolyzed to 2-oxoglutarate during the time of the experiment.

[5] = tested on: EL-4 xenograft mouse lymphoma model; assay: In vivo DNP-MR glutamate signal pre versus post etoposide treatment; parameters: species or system C57BL/6 mouse; conditions: single dose Etoposide 2 mg/mouse i.p.; average over 4 mice, FIG. 8
Procedure: EL-4 xenograft mouse lymphoma model has been selected as test system to verify the ability of detecting tumour response to a DNA targeting therapy. […].
Five million EL-4 cells were suspended in 0.1 mL Roswell Park Memorial Institute (RPMI-1640) medium and subcutaneously injected in the flank of 7 weeks old female C57BL/6 mouse.
DNP experiment has been performed 9-10 days after cells inoculation pre Etoposide treatment and 10-11 days after cells inoculation post single dose Etoposide treatment (a dose of 2 mg/mouse has been i.p. administered by injection of 300 μL of Eposin 20 mg/mL diluted 1:3 in saline solution). DNP sample has been prepared as describes in example 6.

Morris7777 cells [6] = assay: UV assay of 2-oxoglutarate conversion in treated Morris7777 cells; type: cell-based, rat; conditions: Etoposide 15 μM 24 hours, Sorafenib 0.5 μM 48 hours, FIG. 10
Procedure: (§1) The UV assay and conditions used in example 4 were applied. Prior to harvesting the cells have been treated with MS-275, resveratrol, etoposide, or Sorafenib, as follows:
(§2) Morris7777 cells: Etoposide 15 μM, for 24 hours; Sorafenib 0.5 μM for 48 hours.
(§3) Uptake and conversion of 2-oxoglutarate were measured as described in example 4.

[7] = Trypan blue staining, total cell number and viability of treated Morris7777 cells; type: cell-based, rat; conditions: rat, Etoposide 15 μM 24 hours, Sorafenib 0.5 μM 48 hours
Procedure: as §2
(§4) The treatment protocols were evaluated with a standard cellular method, trypan blue staining which provide the total cell numbers and cell viability.

Morris7777 cells [8] = assay: as above; type: cell-based, rat; conditions: Etoposide 15 μM 24 hours, Sorafenib 0.5 μM 48 hours
Procedure: as §2, §4

PC-3 cells [9] = assay: UV assay of 2-oxoglutarate conversion in treated PC-3 cells; type: cell-based, human; conditions: MS-275 0.5 μM 48 hours, Resveratrol 50 μM 48 hours, FIG. 9
Procedure: as §1
PC-3 cells: MS-275 0.5 μM, for 48 hours; Resveratrol 50 μM for 48 hours.
as §3

PC-3 cells [10] = assay: Trypan blue staining, total cell number and viability of treated PC-3 cells; type: cell-based, human; conditions: MS-275 0.5 μM 48 hours, Resveratrol 50 μM 48 hours
Procedure: (§5) PC-3 cells: MS-275 0.5 μM, for 48 hours; Resveratrol 50 μM for 48 hours. The treatment protocols were evaluated with a standard cellular method, trypan blue staining which provide the total cell numbers and cell viability.

[11] = as above; type: cell-based, human; conditions: human, MS-275 0.5 μM 48 hours, Resveratrol 50 μM 48 hours
Procedure: as §5

Compound: 1-^13C-2-oxoglutaric acid [hyperpolarized 1-^13C-2-oxoglutarate]
- uptake and conversion into hyperpolarized 1-13C-glutamate [1]: taken up by PC-3 cells and converted into hyperpolarized 1-^13C-glutamate
- produced hyperpolarized 1-13C-glutamate signal relative to 1-13C-lactate signal from hyperpolarized 1-13C-pyruvate [2]: more than 2 times

Compound: O=C(O)CCC(=O)C(=O)O [2-oxoglutarate]
- conversion of 2-oxoglutarate in glutamate [3]: higher in carcinoma cells than in normal cells
- formation of glutamate product by aspartate transaminase (aspartate transaminase; no co-substrate (tube 3)): no product can be formed
- conversion to glutamate by aspartate transaminase, aspartate versus glutamate as co-substrate (aspartate transaminase; tubes 1 and 2, 37° C., FIG. 1): the two amino acids are almost equally effective

- ester hydrolyzed to 2-oxoglutarate [4]: at least 95%
Compound: CCOC(=O)C(=O)CCC(=O)O [2-oxoglutaric-(1)-ethyl ester]

Compound: COc1cc([C@@H]2c3cc4c(cc3[C@@H](O[C@@H]3O[C@@H]5CO[C@@H](C)O[C@H]5[C@H](O)[C@H]3O)[C@H]3COC(=O)[C@H]23)OCO4)cc(OC)c1O [Etoposide, etoposide]
- signal of hyperpolarized 1-13C-glutamate post therapy compared to pre therapy [5]: increases two times
- conversion of 2-oxoglutarate to glutamate in comparison to untreated cells (control) (Morris7777 cells [6]): higher
- viability [7]: < 85%
- Cell number (Morris7777 cells [8]): 5.5 million

Compound: Nc1ccccc1NC(=O)c1ccc(CNC(=O)OCc2cccnc2)cc1 [MS-275]
- conversion of 2-oxoglutarate to glutamate in comparison to untreated cells (control) (PC-3 cells [9]): no change
- Cell number (PC-3 cells [10]): 4.5 million

Compound: Oc1ccc(C=Cc2cc(O)cc(O)c2)cc1 [Resveratrol]
- conversion of 2-oxoglutarate to glutamate in comparison to untreated cells (control) (PC-3 cells [9]): higher
- viability at 48 h [11]: > 94%
- Cell number (PC-3 cells [10]): 1.7 million

Compound: CNC(=O)c1cc(Oc2ccc(NC(=O)Nc3ccc(Cl)c(C(F)(F)F)c3)cc2)ccn1 [Sorafenib, sorafenib]
- conversion of 2-oxoglutarate to glutamate in comparison to untreated cells (control) (Morris7777 cells [6]): no change
- viability [7]: > 89%
- Cell number (Morris7777 cells [8]): 8 million
